Laboratory results as given in paper PMC10426190 (Breast Cancer Research : BCR, 2023).
pIC50: −log10 of the molar value. Like-named read-outs stand apart in the source and are kept apart here. Values belong to the compound of their own block, whether it stands above or below them.

How the values were obtained:
uterine tissue = assay: Assessment of uterotropic activity in juvenile rats; type: in vivo, rat; conditions: juvenile SD rats, oral QD x 3 days; tamoxifen 60 mg/kg, SCR-6852 10 mg/kg; vs vehicle
Experimental: Twenty-four hours after the final dose, all animals were euthanized. Body weights and wet uterine weights were recorded for each animal. Fresh uterine tissue from each rat was fixed in 4% paraformaldehyde, dehydrated by HistoCore PEARL (Leica), and embedded by HistoCore Arcadia H + HistoCore Arcadia C (Leica). Sections were cut at 4 μm and stained with 0.1% toluidine blue O. The thickness of endometrial epithelium was measured using Leica Aperio CS2 with ImageScope × 64 program (Leica). The mean of five measurements per specimen was calculated.
MCF7 with hormone-deprived pre-treatment were administrated ER ligands or not present with 1 nM E2 stimulation for 24 h incubation in a 12-well plate. Total mRNA was isolated from treated cells and sequenced on an Illumina HiSeq X Ten platform. FPKM of each gene was calculated using Cufflinks and Differential expression genes analysis by using the DESeq (2012) R package. Four separate clusters were obtained. […] T47D EFM-19 and HCC1500 cells were grown in RPMI media supplemented with 10% charcoal-stripped FBS for 14 days and then treated with ER antagonist (1 μM) or DMSO in the presence E2 (1nM) stimulation for 24 h before RNA isolation and gene expression analysis as described in methods. […] Endometrial height was assessed from the basement membrane to the luminal border (scale bar in green lines: 200 μm), Arrows indicate the uterine epithelium (e).

breast cancer = tested on: breast cancer; design: method as in PMID 28149048; conditions: cited from earlier work
[1] = Brain distribution study in mice; conditions: oral 10 mg/kg once a day (fulvestrant 250 mg/kg sc once per week), 24 h post last dose
Experimental: The blood and brain tissues were collected at 24 h post the last dose. […] All blood was collected in K2-EDTA tubes and plasma was obtained by centrifuging the blood at 3200 rpm for 10 min at 4 °C and the brain was rinsed with water and blotted to remove superficial meninges. Plasma and brain samples were stored at − 80 °C until LC–MS/MS analysis which was performed on an Acquity UPLC system (Waters, USA) coupled to an AB SCIEX Triple Quad 6500 + System.
Brain conc./plasma conc. was presented as a B/P ratio

[2] = design: method as in PMID 30018387; conditions: cited from earlier work
[3] = tested on: MCF-7 subcutaneous tumors; assay: MCF-7 subcutaneous xenograft, combination with Palbociclib; type: in vivo, mouse; conditions: MCF-7 sc, Palbociclib 40 mg/kg monotherapy
Experimental: Female Balb/c nude mice were used for MCF-7 and T47D tumor subcutaneous xenograft studies. At least one day before tumor cell implantation, estrogen pellets (0.18 mg, 17β-Estradiol, 60-day release, Innovative Research of America, Sarasota, FL, USA) were implanted subcutaneously. Each mouse was subcutaneously injected with 1 × 10^7 MCF-7 (ECACC) or T47D cells in the right flank, and tumor growth was monitored. The long diameter (a) and the short diameter (b) of the tumor were measured using a caliper, and the tumor volume was calculated using the following formula: V = 0.5 × a × b^2. […] Tumor volumes were evaluated twice per week. Treatment tolerability was assessed by body weight measurements and frequent observation for clinical signs of treatment-related adverse effects.
(§1) Statistical and graphical presentations were performed using IDBS XLfit and GraphPad Prism 9. For cell proliferation assays, the IC50 was calculated by fitting a dose–response curve using a nonlinear regression model with a log(inhibitor) vs response curve fit. […] P-values < 0.05 were considered statistically significant.
Cell viability was measured using Cell TiterGlo assay. […] The result of one representative assay from three similar independent experiments is shown.

[4] = tested on: ER + breast cancer cell lines; assay: Proliferation assay across ER-positive cell panel; type: cell-based, human; conditions: CAMA-1 and HCC1500, 7 days
Experimental: (§2) Trypsinized cells were dispensed into 384-well plates in culture media and after overnight incubation cells were treated with compounds for 7 days. Cell viability was assessed using CellTiter-Glo (Promega) according to the manufacturer’s protocol and relative luminescence units (RLU) were measured using an Envision Multilabel Reader (Perkin Elmer). […] IC50 and Imax were analyzed with IDBS XLfit.
MCF7 cells were seeded in a 384-well plate and linear-dilution compounds were administrated in duplicate for each treatment. After incubation for 24 h, Cells in the assay pate were treated as described in methods. ERα levels were quantified by immunofluorescence assay. […] Data are given as mean ± SEM. b The maximal ERα degradation across an ER-positive cell panel was evaluated in an In-cell Western assay. Cells were dispended into 96-well plates and incubated for 24 h with compounds (100 nM) treatment. […] Cells were seeded in 384-well plates and treated with linear-dilution compounds for 7 days of incubation. Cell viability was assessed using CellTiter-Glo. Cell growth inhibition is presented as a percentage of CellTiterGlo activity relative to the vehicle control. […] WT (e) and ER. Y537S cells (f). […] Then cells in each well were collected and the targeting proteins in lysate supernatant were detected by WB

ERα [5] = target: T1, ERα (Homo sapiens, UniProt P03372); assay: Maximal ERα degradation across ER-positive cell panel, In-cell Western, 100 nM; type: cell-based; conditions: 24 h, EFM-19, CAMA-1, HCC1500, T47D, BT-474
T1 sequence (P03372 1-595): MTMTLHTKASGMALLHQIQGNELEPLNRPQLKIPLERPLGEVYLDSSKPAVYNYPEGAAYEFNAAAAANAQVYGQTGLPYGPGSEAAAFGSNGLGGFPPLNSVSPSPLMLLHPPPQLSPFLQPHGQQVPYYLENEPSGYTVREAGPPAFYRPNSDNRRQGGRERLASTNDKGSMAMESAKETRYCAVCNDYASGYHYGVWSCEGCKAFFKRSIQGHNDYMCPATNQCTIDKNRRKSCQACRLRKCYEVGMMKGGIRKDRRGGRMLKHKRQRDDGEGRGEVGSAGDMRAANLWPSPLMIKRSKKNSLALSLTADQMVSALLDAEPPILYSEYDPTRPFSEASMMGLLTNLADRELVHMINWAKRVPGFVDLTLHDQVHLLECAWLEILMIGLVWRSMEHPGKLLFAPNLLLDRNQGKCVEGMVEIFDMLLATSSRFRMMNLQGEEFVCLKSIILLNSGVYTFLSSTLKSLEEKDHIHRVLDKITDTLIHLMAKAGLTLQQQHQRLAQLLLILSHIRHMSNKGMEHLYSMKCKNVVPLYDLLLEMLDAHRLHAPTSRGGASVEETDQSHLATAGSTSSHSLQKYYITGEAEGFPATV
Experimental: (§3) MCF7 cells were seeded in a 384-well plate and linear-dilution compounds were administrated in duplicate for each treatment. After incubation for 24 h, Cells in the assay pate were treated as described in methods. ERα levels were quantified by immunofluorescence assay. […] Cells were dispended into 96-well plates and incubated for 24 h with compounds (100 nM) treatment. […] Cells were seeded in 384-well plates and treated with linear-dilution compounds for 7 days of incubation. Cell viability was assessed using CellTiter-Glo. Cell growth inhibition is presented as a percentage of CellTiterGlo activity relative to the vehicle control. […] Then cells in each well were collected and the targeting proteins in lysate supernatant were detected by WB

[6] = design: method as in PMID 26149830; conditions: mice, 30 mg/kg, approximately 12 h ref 38; cited from earlier work
ERα [7] = target: T1, ERα; assay: ERα degradation assay, In-Cell Western, MCF-7 WT; type: cell-based; design: MCF-7 wild type and Y537S mutant cells were seeded at a density of 5000 cells per well; host or cells: MCF-7; conditions: 24 h
Experimental: MCF-7 wild type and Y537S mutant cells were seeded at a density of 5000 cells per well into flat clear bottom tissue cultured-treated 384-well plates (Greiner) in culture media and after overnight incubation cells were treated with compounds for 24 h. Then plates were fixed with 4% formaldehyde, permeabilized with ice-cold methanol, and blocked with Odyssey Blocking Buffer (LI-COR). The fixed cells were incubated with rabbit anti- ERα antibody (CST#8644S) and mouse anti-GAPDH antibody (Abcam #ab8245), washed and stained with IRDye 800 Goat anti-Rabbit IgG (Licor#926-32211) and IRDye 680 Goat anti-Mouse IgG (Licor#926-68070). ERα levels were quantitated using Sapphire RGBNIR (Azure), the acumen eX3 imaging system. […] IC50 and Emax were analyzed with IDBS XLfit.
as §3
Cells were seeded at a density of 5,000 cells per well into 384-well plates and treated with linear-titration compounds in duplicate for 24 hours. ERα levels were quantified by immunofluorescence assay as described in the method. The detection signals were captured by Odyssey.

MCF-7 WT cells = assay: Viability assay (CellTiter-Glo, 7 days), MCF-7 WT; type: cell-based, human
Experimental: as §2, §1

[8] = tested on: ER+ breast cancer, WT or mutant ESR1; design: method as in EMERALD (NCT03778931), ASCO, 2022; conditions: ASCO, 2022, cited from earlier work
intracranial tumor = conditions: cited from earlier work

Structure (SMILES): CC/C(=C(\c1ccccc1)c1ccc(OCCN(C)C)cc1)c1ccccc1 [Tamoxifen]
endometrial epithelial thickness (uterine tissue): significantly increased
relative uterine wet weight (uterine tissue): significant increase
reduction of annual mortality rate (breast cancer): 31%
reduction of breast cancer recurrence (breast cancer): 50%

B/P ratio [1]: less than onefold
Structure (SMILES): C[C@@H]1Cc2c([nH]c3ccccc23)[C@@H](c2c(F)cc(NC3CN(CCCF)C3)cc2F)N1CC(F)(F)CO [GDC-9545]

Structure (SMILES): Nc1cc(C(F)(F)F)c(-c2cc(N3CCOCC3)nc(N3CCOCC3)n2)cn1 [Buparlisib]
B/P ratio [2]: > 1.5

B/P ratio [1]: less than onefold
Structure (SMILES): C[C@@H]1Cc2c(ccc3[nH]ncc23)[C@@H](c2ccc(NC3CN(CCCF)C3)cn2)N1CC(F)(F)F [AZD-9833]

Structure (SMILES): CC(=O)c1c(C)c2cnc(Nc3ccc(N4CCNCC4)cn3)nc2n(C2CCCC2)c1=O [Palbociclib]
TGI [3]: 66.34%

maximal ERα degradation rate across ER + cell lines (ERα [5]): less potency ERα degradation rate
Structure (SMILES): C[C@@H]1Cc2c([nH]c3ccccc23)[C@@H](c2c(F)cc(/C=C/C(=O)O)cc2F)N1CC(C)(C)F [AZD9496]
maximal anti-proliferation rate [4]: lower maximal anti-proliferation rate

Structure (SMILES): CCN1CCN(Cc2ccc(Nc3ncc(F)c(-c4cc(F)c5nc(C)n(C(C)C)c5c4)n3)nc2)CC1 [Abemaciclib]
target engagement ratio (unbound brain concentration to in vitro enzyme IC50) [6]: 3.3–14.3

DC50 (ERα [7]): 0.08 nM
ERα degradation assay Dmax [% Ful.] (ERα [7]): 97.83 % Ful.
ERα degradation assay Dmax [% Veh.] (ERα [7]): 66.81 % Veh.
pIC50 (MCF-7 WT cells): 9.54
Structure (SMILES): CC1Cc2cc(B(O)O)ccc2C(c2c(F)cc(NC3CN(CCCF)C3)cc2F)N1CC1(F)CC1 (centres unmarked) [SCR-6515]
Viability assay Emax [% Ful.] (MCF-7 WT cells): 103.00 % Ful.
Viability assay Emax [% Veh.] (MCF-7 WT cells): 64.15 % Veh.

Structure (SMILES): CCNCCc1ccc(CN(CC)c2cc(OC)ccc2[C@@H]2CCc3cc(O)ccc3C2)cc1 [Elacestrant]
PFS rate at 12 months ([8]; ESR1 mutation population ref EMERALD (NCT03778931)): 26.76%
reduction of the risk of disease progression or death ([8]; all patients ref EMERALD (NCT03778931)): 30%
PFS rate at 12 months ([8]; overall population ref EMERALD (NCT03778931)): 22.32%
reduction of the risk of disease progression or death ([8]; patients with ESR1 mutation ref EMERALD (NCT03778931)): 45%
animals survived to the end of the study (intracranial tumor; day 54 ref 41): 43%
B/P ratio (intracranial tumor; intracranial tumor, according to reported data ref 41): about 0.6
